Data: patent US6620818B1, “Method for reducing the severity of side effects of chemotherapy and/or radiation therapy” (priority 2001, dated 2003)

The molecules below were run against CDK1 (Homo sapiens, UniProt P06493) (assay: Cyclin dependent protein kinase assay, CDK1). Details: inhibitory activity against CDK1, baculovirus-expressed enzyme, [γ-32P]ATP peptide phosphorylation.
Format: biochemical

Sequence of CDK1 (P06493 whole entry, species assumed): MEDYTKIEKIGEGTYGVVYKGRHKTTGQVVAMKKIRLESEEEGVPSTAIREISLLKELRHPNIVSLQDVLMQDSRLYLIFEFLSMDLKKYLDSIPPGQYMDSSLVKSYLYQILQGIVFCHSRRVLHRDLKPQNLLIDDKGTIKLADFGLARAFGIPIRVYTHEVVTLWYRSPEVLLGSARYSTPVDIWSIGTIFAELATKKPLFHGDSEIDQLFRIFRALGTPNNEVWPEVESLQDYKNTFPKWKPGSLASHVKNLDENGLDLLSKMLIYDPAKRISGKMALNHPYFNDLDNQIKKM
Sequence of CDK1 (P14635 whole entry partner, species assumed): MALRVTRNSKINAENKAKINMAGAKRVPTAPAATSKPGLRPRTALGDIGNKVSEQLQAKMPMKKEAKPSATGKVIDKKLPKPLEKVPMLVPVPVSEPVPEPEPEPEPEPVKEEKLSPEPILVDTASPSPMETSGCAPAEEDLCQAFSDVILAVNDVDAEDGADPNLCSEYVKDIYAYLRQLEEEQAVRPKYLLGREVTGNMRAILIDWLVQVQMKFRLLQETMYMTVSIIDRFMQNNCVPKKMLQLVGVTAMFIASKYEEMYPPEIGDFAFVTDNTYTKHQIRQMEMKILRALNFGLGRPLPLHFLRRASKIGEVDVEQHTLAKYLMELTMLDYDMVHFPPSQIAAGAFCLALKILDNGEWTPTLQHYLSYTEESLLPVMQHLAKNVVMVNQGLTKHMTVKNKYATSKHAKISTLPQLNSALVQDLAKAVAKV

| IC50 [µM] | Compound |
| --- | --- |
| 0.001 to 0.01 | CC(C)(CO)CNS(=O)(=O)c1ccc(NC=C2C(=O)Nc3ccc4ncsc4c32)cc1 [Compound A1] |
| 0.051 to 0.1 | O=C1Nc2ccc3ncsc3c2C1=CNc1ccc(S(=O)(=O)Nc2ccccn2)cc1 [Compound A2] |
| 0.011 to 0.05 | O=C1Nc2ccc3ncsc3c2C1=CNc1ccc(S(=O)(=O)NCc2ccncc2)cc1 [Compound A3] |
